Key:
[1] = tested on: Glioma Cells PBT-017 and/or U251; test: Combination index COH-SR4 and 5-FU, cell line not stated; assay type: cell-based; conditions: COH-SR4 <0.5 μM + 5-FU <125 μM
Protocol: Effects of combination of COH-SR4 and a chemotherapy drug such as TMZ, SN38, CPT-11, and 5-FU were studied by combination index (CI) theorem and plot using the method described in Chou (“Experimental Design, and Computerized Simulation of Synergism and Antagonism in Drug Combination Studies,” Pharmacological Reviews, Vol. 58, No. 3), which is incorporated herein by reference in its entirety.
COH-SR4 and a chemotherapy drug (TMZ, SN38, CPT-11, or 5-FU) were dissolved in DMSO individually, and then diluted to the appropriate concentration in the same cell culture media before applying to cells of each cell line. After 4 days, the amount of ATP present in the cell lysates were assessed using Progema's CellGlo kit. The CI of each combination of COH-SR4 and the chemotherapy drug was calculated and plotted against the concentration of COH-SR4 for each concentration of the chemotherapy drug used.

H1417 = test: Colony formation assay, H1417; assay type: cell-based, human; conditions: 1.5 μM
Protocol: Cell survival was evaluated using a standard colony-forming assay. In total, 1×10^5 cells/mL were incubated with COH-SR4 (1.5 μM or 5 μM) or elesclomol (5 μM) for 24 h, and aliquots of 50 or 100 μL were added to 60 mm size petri dishes, containing 4 mL culture medium. After 7 or 10 days, adherent colonies were fixed, stained with 0.5% methylene blue for 30 min and colonies were counted using the Innotech Alpha Imager HP (91).
The effect of COH-SR4 was first examined in a NCI panel of cancer cell lines, the results of which indicated good activity of COH-SR4 towards lung cancer (FIG. 78A). […] Values are presented as mean±SD from two separate determinations with eight replicates each (n=16) (FIG. 78B). The COH-SR4 treatment exerted a significant inhibitory effect on the survival of lung cancer cells [IC50: H1417 cells-1.2±0.2 μM, H1618 cells-1.5±0.2 μM, H358 cells-2.1±0.2 μM and H520 cells-2.4±0.3 μM]. […] Following initial screening for the anticancer activity of COH-SR4, the effect of COH-SR4 on clonogenic potential was studied. Standard colony-forming assay was performed and the colonies were counted using Innotech Alpha Imager HP. […] The effect of COH-SR4 on induction of apoptosis was further investigated. […] TUNEL assay was performed using Promega fluorescence detection kit and examined using Zeiss LSM 510 META laser-scanning fluorescence microscope with filters 520 and 620 nm. […]

[2] = tested on: HepG2 liver carcinoma cells; test: Intracellular AMP:ATP ratio in HepG2; assay type: cell-based, human; conditions: 5 μM, 1 h
Protocol: ATP production from cells treated with test compounds were measured using the Luminescent ATP Detection Assay Kit. AMP, ATP and ADP were measured by UV-HPLC.
Total intracellular ATP production in cells treated with either 5 μM COH-SR4 or 5 μM FCCP was measured by bioluminescence assay and expressed as percentage of time-matched vehicle (DMSO) control (FIG. 84A). Intracellular AMP: ATP ratios increased in HepG2 liver carcinoma cells following 1 h treatment with either 5 μM COH-SR4 or 5 μM FCCP (FIG. 84B) and in liver of db/db mice treated with COH-SR4 (5 mg/kg B.W.) for 5 weeks (FIG. 84C). All data represented are mean±SEM, *P<0.05.

H-358 and H-520 cells = test: Cell cycle FACS analysis, lung cancer; assay type: cell-based, human
Protocol: 2×10^5 cells were treated with COH-SR4 (0 μM, 5 μM or 10 μM) for 18 h at 37° C. After treatment, floating and adherent cells were collected, washed with PBS, and fixed with 70% ethanol. On the day of flow analysis, cell suspensions were centrifuged; counted and same numbers of cells were resuspended in 500 μL PBS in flow cytometry tubes. Cells were then incubated with 2.5 μL of RNase (stock 20 mg/mL) at 37° C. for 30 min after which they were treated with 10 μL of propidium iodide (stock 1 mg/mL) solution and then incubated at room temperature for 30 min in the dark. The stained cells were analyzed using the Beckman Coulter Cytomics FC500, Flow Cytometry Analyzer. Results were processed using CXP2.2 analysis software from Beckman Coulter.
In the context of the elevation of GSTs in lung cancer, the impact of COH-SR4 on the catalytic activity of GSTs towards 1-chloro 2,4-dinitro benzene (CDNB), a model substrate used for GST activity was analyzed. GST activity towards 1-chloro 2,4-dinitro benzene (CDNB) and its inhibition by COH-SR4 was performed in 28000×g crude supernatant prepared from H1417, H1618, H520 and H358 cells. The inhibitory effect of COH-SR4 on GST was studied at a fixed concentration of GSH and CDNB (1 mM each) and varying concentrations of inhibitor. The enzymes were pre-incubated with the inhibitor for 5 min at 37° C. prior to the addition of the substrates. […]

AMPK = AMPK activation in HL-60 cells, Western blot; assay type: cell-based, human; conditions: 1 hour
Protocol: Activation of AMPK was associated with the phosphorylation of the α-subunit on Thr-172 of as assessed using phospho-specific antibodies (FIGS. 10A-B). AMPK activation also leads to the increased phosphorylation of the target protein acetyl-CoA carboxylase (ACC) (FIG. 10B).
Cells of each cell lines (Hela, HL-60, and 3T3-L1) were treated for 1 hour with a test compound (COH-SR4, COH-SR9, COH-SR16, or COH-SR18) at a concentration of 1 μM, 3 μM, or 5 μM, or AICAR (5-aminoimidazole-4-carboxamideriboside, an AMPK agonist used as positive control) at a concentration of 500 μM, or none of the above (the untreated cells as negative control). Total cell lysates from the untreated cells and the cells treated with a test compound or AICAR were analyzed by Western blot assay using specific antibodies against phospho-AMPK, phospho-ACC, total AMPK and total ACC.

O=C(Nc1cc(Cl)cc(Cl)c1)Nc1cc(Cl)cc(Cl)c1 [COH-SR4, 1,3-bis(3,5-dichlorophenyl) urea]
combination effect (CI) with 5-FU [1]: synergism
colony formation (H1417): 39±8%
intracellular AMP:ATP ratios [2]: increased
cell cycle arrest (H-358 and H-520 cells): induced G0/G1 phase arrest in a concentration dependent manner
AMPK activation (AMPK): activated AMPK

— patent publication US9808434B2, “Compound for treating cancer and diabetes” (CITY OF HOPE, priority 2011, dated 2017)
